Experimental data published in patent US11299458B2, “Crystalline compounds” (OTSUKA AMERICA PHARMACEUTICAL, INC., priority 2015, dated 2022).
“And” between values parts separate entries of the source, which are not always exact repeats. Equal entries are not always repeated.

Assays:
[1] = target: serotonin reuptake (5-HT) (Homo sapiens, UniProt P31645); conditions: unbalanced triple reuptake inhibitor; cited from earlier work
dopamine reuptake (DA) = dopamine reuptake (DA) (Homo sapiens, UniProt Q01959); conditions: unbalanced triple reuptake inhibitor; cited from earlier work
[2] = target: norepinephrine reuptake (NE) (Homo sapiens, UniProt P23975); conditions: unbalanced triple reuptake inhibitor; cited from earlier work
[3] = Accelerated stress conditions (relative humidity stress), solid form by XRPD; format: physicochemical; conditions: two weeks
Description: Relative Humidity Stress: Solids are stored at approximately 40° C./75% RH condition for a measured time period by placing the solids into a vial inside a sealed temperature/humidity chamber at the controlled condition. Samples are analyzed after removal from the stress environment.
Crystalline Forms A, B, and C are exposed to accelerated stress conditions for two weeks (Table 18 below). […] Crystalline Form C is metastable at this condition.
Experimental: Relative Humidity Stress
The following relative humidity jars (saturated salt solutions are used to generate desired relative humidity) are utilized: 75% RH (NaCl) and 56% RH (NaBr) (Nyqvist, H., Int. J. Pharm. Tech. &Prod. Mfr. 1983, 4 (2), 47-48).

[4] = Solution calorimetry (SolCal), heats of solution in methanol; format: physicochemical; conditions: 25° C.
Description: For each test, two heats of solution are obtained—one calculated using a calibration preceding the sample analysis and one calculated using a calibration following the sample analysis. Clear solutions are observed after each test.
Solution calorimetry is performed using a Thermometric 2225 Precision Solution calorimeter, a semi-adiabatic calorimeter. Solution calorimeter System v.1.2 software is used. Samples are weighed into glass crushing ampoules and are sealed using silicone rubber plugs and hot wax. Experiments are carried out in 100 mL of methanol at 25° C. The measurement of the heats of solution of the samples is both preceded and followed by calibrations using an internal heater. The heats of solution are calculated using dynamic of calibration model.

[5] = Approximate solubility by solvent aliquot addition; format: physicochemical; conditions: in both methanol and water, room temperature
Description: Solution calorimetry (SolCal) analyses are also performed to determine the heats of solution in methanol at 25° C. and confirm the stable form at this temperature (see Example 15).
Experimental: Approximate Solubility
A weighed sample is treated with aliquots of the test solvent at room temperature. The mixture is sonicated between additions to facilitate dissolution. Complete dissolution of the test material is determined by visual inspection. Solubility is estimated based on the total solvent used to provide complete dissolution. The actual solubility may be greater than the value calculated because of the use of solvent aliquots that are too large or due to a slow rate of dissolution.

[6] = Storage stability of solid form, XRPD after storage; format: physicochemical; conditions: 22 days of ambient storage
Description: Six scale-up attempts are conducted to prepare Crystalline Form C by cooling in isopropanol on approximately 50-150 mg scale (Table 11) and the solids tested by XRPD. At refrigerator temperature, precipitated solids yield Form B. Seeding with Form C after cooling in the refrigerator (no solids observed) and before placing in the freezer yield XRPD pattern of Form C with B peaks. Precipitation at freezer temperature results in solids with an XRPD pattern of Form C with A peaks. A solution placed in the freezer after cooling to room temperature with a lower concentration (7 mg/mL compared to 10 mg/mL) yields Form B. By crash cooling (ambient solution placed into dry ice/isopropanol), solids generated are a mixture of Forms B and A. The last attempt on an approximate 50-mg scale generates a mixture of Forms A and C.
An elliptically graded multilayer mirror is used to focus Cu Kα X-rays through the specimen and onto the detector. Prior to the analysis, a silicon specimen (NIST SRM 640e) is analyzed to verify the observed position of the Si 111 peak is consistent with the NIST-certified position. A specimen of the sample is sandwiched between 3-μm-thick films and analyzed in transmission geometry. A beam-stop, short antiscatter extension, and antiscatter knife edge are used to minimize the background generated by air. Soller slits for the incident and diffracted beams are used to minimize broadening from axial divergence. The diffraction pattern is collected using a scanning position-sensitive detector (X'Celerator) located 240 mm from the specimen and Data Collector software v. 2.2b. Data acquisition parameters are: Panalytical X-Pert Pro MPD PW3040 Pro, X-ray Tube: Cu (1.54059 Å), Voltage: 45 kV, Amperage: 40 mA, Scan Range: 1.00-39.99° 2θ, Step Size: 0.017° 2θ, Collection Time: 719 s, Scan Speed: 3.3°/min., Slit: DS: ½°, SS: null, Revolution Time: 1.0 s, Mode: Transmission.

[7] = Binary interconversion (competitive) slurry experiments between Crystalline Forms A, B and C; format: physicochemical; conditions: from interconversion slurries
Description: Interconversion experiments are performed to test the hypothetical thermodynamic relationship between materials illustrated by the Energy—Temperature Diagram above. […] The choice of solvent affects the kinetics of polymorph conversion and not the thermodynamic relationship between polymorphic forms (Gu, C. H., Young, V. Jr., Grant, D. J., J. Pharm. Sci. 2001, 90 (11), 1878-1890).
Binary interconversion slurry experiments between Crystalline Forms A, B, and C in different solvent systems at temperatures spanning approximately 2 through 67° C. are summarized in Table 16 below. Saturated solutions are generated and then added to mixtures composed of approximately equivalent quantities of two of the polymorphs. The samples are slurried from overnight to three weeks and the solids harvested and analyzed by XRPD. The results of the interconversion studies indicate that the relative thermodynamic stability of the enantiotropes Crystalline Forms A, B, and C are correctly depicted by the proposed Energy—Temperature Diagram. In addition, Tt,C→B is expected below 2° C.

[8] = Physical stability of mixture of Forms A and B on heat exposure; format: physicochemical; conditions: exposure to 230° C.
Description: Tt,B→A is between 37 and 54° C. […] (Table 19 below).

Chain of dopamine reuptake (DA) (Q01959 whole entry): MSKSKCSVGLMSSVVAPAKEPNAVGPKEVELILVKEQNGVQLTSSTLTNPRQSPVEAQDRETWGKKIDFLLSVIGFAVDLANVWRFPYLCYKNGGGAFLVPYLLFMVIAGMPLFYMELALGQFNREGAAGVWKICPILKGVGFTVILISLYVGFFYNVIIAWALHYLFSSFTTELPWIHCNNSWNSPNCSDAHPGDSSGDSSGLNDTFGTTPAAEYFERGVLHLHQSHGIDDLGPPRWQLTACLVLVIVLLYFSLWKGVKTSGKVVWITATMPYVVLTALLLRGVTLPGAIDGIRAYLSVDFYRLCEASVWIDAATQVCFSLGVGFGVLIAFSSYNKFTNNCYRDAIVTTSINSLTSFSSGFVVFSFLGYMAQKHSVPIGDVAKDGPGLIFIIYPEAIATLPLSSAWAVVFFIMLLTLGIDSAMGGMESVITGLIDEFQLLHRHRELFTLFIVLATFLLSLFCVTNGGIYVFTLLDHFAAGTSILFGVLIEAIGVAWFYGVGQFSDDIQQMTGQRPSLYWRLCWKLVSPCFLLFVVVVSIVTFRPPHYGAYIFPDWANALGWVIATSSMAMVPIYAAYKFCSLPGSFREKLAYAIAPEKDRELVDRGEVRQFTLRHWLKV
Chain of serotonin reuptake (5-HT) (P31645 whole entry): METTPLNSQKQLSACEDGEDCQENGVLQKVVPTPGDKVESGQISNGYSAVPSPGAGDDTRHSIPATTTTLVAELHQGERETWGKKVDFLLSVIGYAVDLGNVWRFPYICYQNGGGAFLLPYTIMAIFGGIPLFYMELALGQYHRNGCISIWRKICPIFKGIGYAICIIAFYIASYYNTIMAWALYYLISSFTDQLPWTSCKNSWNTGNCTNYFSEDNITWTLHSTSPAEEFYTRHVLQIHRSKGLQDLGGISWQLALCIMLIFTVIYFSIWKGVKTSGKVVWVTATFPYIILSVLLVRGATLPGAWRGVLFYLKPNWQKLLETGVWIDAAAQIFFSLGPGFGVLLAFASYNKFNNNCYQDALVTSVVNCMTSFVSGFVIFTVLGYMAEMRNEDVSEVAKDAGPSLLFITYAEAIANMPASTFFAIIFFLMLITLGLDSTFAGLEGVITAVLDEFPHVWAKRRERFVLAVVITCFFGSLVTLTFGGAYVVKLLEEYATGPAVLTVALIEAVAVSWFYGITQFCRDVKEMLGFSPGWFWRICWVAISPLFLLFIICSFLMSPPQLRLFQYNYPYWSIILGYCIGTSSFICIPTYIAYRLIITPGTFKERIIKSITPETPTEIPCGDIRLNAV
Chain of norepinephrine reuptake (NE) (P23975 whole entry): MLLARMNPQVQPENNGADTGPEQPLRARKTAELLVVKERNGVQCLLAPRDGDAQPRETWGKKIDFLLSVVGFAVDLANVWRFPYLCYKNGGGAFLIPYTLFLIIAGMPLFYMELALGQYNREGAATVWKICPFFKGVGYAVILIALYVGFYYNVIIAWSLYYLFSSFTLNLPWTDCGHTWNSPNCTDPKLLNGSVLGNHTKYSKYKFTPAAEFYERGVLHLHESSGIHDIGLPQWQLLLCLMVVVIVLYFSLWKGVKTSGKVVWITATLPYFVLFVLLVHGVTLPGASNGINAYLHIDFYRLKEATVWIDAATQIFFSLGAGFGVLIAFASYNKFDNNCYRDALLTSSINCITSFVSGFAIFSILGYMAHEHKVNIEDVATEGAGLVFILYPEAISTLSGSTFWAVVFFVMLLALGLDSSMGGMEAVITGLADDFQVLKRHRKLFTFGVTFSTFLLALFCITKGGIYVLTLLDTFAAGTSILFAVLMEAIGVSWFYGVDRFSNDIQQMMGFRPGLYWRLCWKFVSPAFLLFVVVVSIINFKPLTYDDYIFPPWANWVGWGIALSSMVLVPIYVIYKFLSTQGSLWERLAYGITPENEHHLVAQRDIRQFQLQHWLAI

In the case of `c1ccc2cc([C@]34CNC[C@H]3C4)ccc2c1` [(1R,5S)-1-(naphthalen-2-yl)-3-azabicyclo[3.1.0]hexane], the “potency towards serotonin reuptake (5-HT) relative to norepinephrine reuptake” value [1] is listed as “one-fourteenth as much”, the “potency towards dopamine reuptake (DA) relative to norepinephrine reuptake” value (dopamine reuptake (DA)) is listed as “one-sixth as potent” and the “potency towards norepinephrine reuptake (NE) among the three reuptakes” value [2] is listed as “most potent”.

In the case of `Cl.c1ccc2cc([C@]34CNC[C@H]3C4)ccc2c1` [Crystalline Form B, (1R,5S)-1-(naphthalen-2-yl)-3-azabicyclo[3.1.0]hexane hydrochloride], the “solid form by XRPD after accelerated stress” value ([3]; 30° C./56% RH) is reported as “remain unchanged”, the “solid form by XRPD after accelerated stress” value ([3]; 40° C./75% RH, hydrochloride) is reported as “remain unchanged” and the “relative thermodynamic stability versus Crystalline Form A from heats of solution” value [4] is reported as “more stable”. For the same compound, the “enthalpy of the transition from Form B to Form A calculated from the SolCal data” value ([4]; methanol) was “about 15.9 J/g”, the “average heat of solution” value ([4]; methanol, triplicate, endothermic, hydrochloride) was 64.567 J/g and the “average heat of solution” value ([4]; methanol, average of three replicates, hydrochloride) was 64.567 J/g. For the same compound, the “ΔH2 (heat of solution)” value ([4]; methanol, calculated using the calibration after breaking the sample vial, single replicates, hydrochloride) was 64.985 J/g and 65.057 J/g and 65.421 J/g, the “ΔH1 (heat of solution)” value ([4]; methanol, calculated using the calibration before breaking the sample vial, single replicates, hydrochloride) was 64.004 J/g and 63.471 J/g and 64.461 J/g and the “ΔHmean (heat of solution)” value ([4]; methanol, mean of the two calibrations, single replicates, hydrochloride) was 64.495 J/g and 64.264 J/g and 64.941 J/g. The “apparent solubility compared with Crystalline Form A” value [5] was “lower apparent solubility”.

In the case of `Cl.c1ccc2cc([C@]34CNC[C@H]3C4)ccc2c1` [Crystalline Form C, (1R,5S)-1-(naphthalen-2-yl)-3-azabicyclo[3.1.0]hexane hydrochloride], the “solid form by XRPD after ambient storage” value [6] is reported as “remains unchanged”, the “solid form by XRPD after accelerated stress” value ([3]; 40° C./75% RH, hydrochloride) is reported as “converts to a mixture of Crystalline Forms A and B” and the “transition temperature Tt,C→A” value [7] is reported as “between 2 °C and ambient temperature”.

With `Cl.c1ccc2cc([C@]34CNC[C@H]3C4)ccc2c1` [mixture of Forms A and B, (1R,5S)-1-(naphthalen-2-yl)-3-azabicyclo[3.1.0]hexane hydrochloride] the “solid form after heat exposure” value [8] was “completely converts to Form A”.
